Assay results published in patent US11213517B2, “Pharmaceutical combination comprising a T-type calcium channel blocker” (IDORSIA PHARMACEUTICALS LTD, priority 2016, dated 2022).
Where “and” joins values, the source holds several entries; their conditions need not be identical. Identical values can stand only once. Like-named read-outs stand apart in the source and are kept apart here.

Experiments:
[1] = system: audiogenic seizure-sensitive juvenile DBA/2J mice; test: Audiogenic seizure-sensitive juvenile DBA/2J mouse model of generalized tonic-clonic seizures; assay type: in vivo; parameters: key: 0 none, 1 wild running, 2 clonus, 3 hind-limb tonic extension; conditions: oral gavage, mean ± SEM
Text: Audiogenic Seizure-Sensitive Juvenile DBA/2J Mouse Model of Generalized Tonic-Clonic Seizures
The inbred DBA/2J mouse strain carries an increased general susceptibility for acute generalized convulsive seizures induced by either pharmacological, electrical or, as juvenile, auditory stimuli. At the age of 17 to 28 days (juvenile), they show tonic-clonic convulsions when exposed to a loud tone.
Male juvenile DBA/2J mice (22-24 days old, body weight between 6.6 and 14.5 grams) were used. Each mouse was placed individually in the exposure chamber, an hemispheric acrylic glass dome (diameter: 50 cm) within a sound-attenuated box. After 60 seconds of habituation, an auditory stimulus of mixed frequency tone (15-20 kHz at 110 dB) was played from a speaker placed on the top center of the dome.
The sound-attenuated box was equipped with lights and a camera system in order to observe and record the behavioral seizure response classified as following: • stage 0, no response • stage 1, wild running • stage 2, clonus • stage 3, tonic extension of the hind limbs.
(§1) Different combination efficacy experiments are performed. […] Each experiment consists of four treatment groups: • 1. Vehicle (10% Polyethylene glycol400 (PEG400)/90% methylcellulose (0.5% in water; MC0.5%)), 3 h before exposure to the auditory stimulus+vehicle, 1 h before exposure to the auditory stimulus; • 2. COMPOUND 1 (in 10% PEG400/90% MC0.5%), 3 h before exposure to the auditory stimulus+vehicle, 1 h before exposure to the auditory stimulus; • 3. Vehicle, 3 h before exposure to the auditory stimulus+AED (in 10% PEG400/90% MC0.5%), 1 h before exposure to the auditory stimulus; and • 4. COMPOUND 1 (in 10% PEG400/90% MC0.5%), 3 h before exposure to the auditory stimulus+AED (in 10% PEG400/90% MC0.5%), 1 h before exposure to the auditory stimulus.

[2] = Plasma and brain concentrations of drugs at the end of the audiogenic seizure experiment (LC-MS); assay type: in vivo, mouse; conditions: for plasma and brain concentrations after administration of the compounds alone or in combination: juvenile DBA/2J mice; for concentration at 1 h: DBA/2J, mouse, oral
Method: Briefly, blood was sampled from the vena cava caudalis with a syringe pre-filled with EDTA (ethylenediamine tetraacetic acid) as anticoagulant and centrifuged to yield plasma (for 10 minutes, at 4° C. and 5000 rpm (rounds per minute)). Brain was sampled and homogenized into one volume of cold phosphate buffer (pH 7.4). Following extraction with methanol, concentrations of the compound in plasma and brain were determined using liquid chromatography coupled to mass spectrometry.
as §1

[3] = analyte LTG, vehicle 3 h + LTG 10 mg/kg 1 h before stimulus, oral gavage, mean ± SEM

## Nc1nnc(-c2cccc(Cl)c2Cl)c(N)n1 [LTG, 6-(2,3-dichlorophenyl)-1,2,4-triazine-3,5-diamine]
[1]; vehicle 3 h + LTG 3 mg/kg 1 h before stimulus
  Seizure stage (maximal seizure stage observed during exposure to auditory stimulus): 1.9 ± 0.2
[1]; vehicle 3 h + LTG 3 mg/kg 1 h before stimulus, listed as lamotrigine
  Seizure stage (maximal seizure stage observed during exposure to auditory stimulus): 2
[1]; vehicle 3 h + LTG 30 mg/kg 1 h before stimulus
  Seizure stage (maximal seizure stage observed during exposure to auditory stimulus): 0.2 ± 0.2 #
[2]; COMPOUND 1 and lamotrigine
  plasma and brain concentrations after administration of the compounds alone or in combination: similar
[2]; brain, 3 mg/kg, analyte LTG, vehicle 3 h + LTG 3 mg/kg 1 h before stimulus, oral gavage, mean ± SEM, read-out: Brain concentration total
  concentration at 1 h: 1490 ± 128 ng/g
[2]; brain, 10 mg/kg, analyte LTG, vehicle 3 h + LTG 10 mg/kg 1 h before stimulus, oral gavage, mean ± SEM, read-out: Brain concentration total
  concentration at 1 h: 3260 ± 144 ng/g
[2]; brain, 30 mg/kg, analyte LTG, vehicle 3 h + LTG 30 mg/kg 1 h before stimulus, oral gavage, mean ± SEM, read-out: Brain concentration total
  concentration at 1 h: 8890 ± 248 ng/g
[2]; brain, analyte LTG, COMPOUND 1 10 mg/kg 3 h + LTG 10 mg/kg 1 h before stimulus, oral gavage, mean ± SEM, read-out: Brain concentration total
  concentration at 1 h: 3690 ± 393 ng/g
[2]; brain, analyte LTG, COMPOUND 1 30 mg/kg 3 h + LTG 3 mg/kg 1 h before stimulus, oral gavage, mean ± SEM, read-out: Brain concentration total
  concentration at 1 h: 1370 ± 100 ng/g
[2]; brain, analyte LTG, COMPOUND 1 30 mg/kg 3 h + LTG 10 mg/kg 1 h before stimulus, oral gavage, mean ± SEM, read-out: Brain concentration total
  concentration at 1 h: 3660 ± 310 ng/g
[2]; brain, analyte LTG, COMPOUND 1 30 mg/kg 3 h + LTG 30 mg/kg 1 h before stimulus, oral gavage, mean ± SEM, read-out: Brain concentration total
  concentration at 1 h: 8560 ± 853 ng/g
[2]; plasma, 3 mg/kg, analyte LTG, vehicle 3 h + LTG 3 mg/kg 1 h before stimulus, oral gavage, mean ± SEM, read-out: Plasma concentration total
  concentration at 1 h: 293 ± 27 ng/mL
[2]; plasma, 10 mg/kg, analyte LTG, vehicle 3 h + LTG 10 mg/kg 1 h before stimulus, oral gavage, mean ± SEM, read-out: Plasma concentration total
  concentration at 1 h: 930 ± 77 ng/mL
[2]; plasma, 30 mg/kg, analyte LTG, vehicle 3 h + LTG 30 mg/kg 1 h before stimulus, oral gavage, mean ± SEM, read-out: Plasma concentration total
  concentration at 1 h: 3560 ± 165 ng/mL
[2]; plasma, analyte LTG, COMPOUND 1 10 mg/kg 3 h + LTG 10 mg/kg 1 h before stimulus, oral gavage, mean ± SEM, read-out: Plasma concentration total
  concentration at 1 h: 859 ± 101 ng/mL
[2]; plasma, analyte LTG, COMPOUND 1 30 mg/kg 3 h + LTG 3 mg/kg 1 h before stimulus, oral gavage, mean ± SEM, read-out: Plasma concentration total
  concentration at 1 h: 284 ± 18 ng/mL
[2]; plasma, analyte LTG, COMPOUND 1 30 mg/kg 3 h + LTG 10 mg/kg 1 h before stimulus, oral gavage, mean ± SEM, read-out: Plasma concentration total
  concentration at 1 h: 1330 ± 102 ng/mL
[2]; plasma, analyte LTG, COMPOUND 1 30 mg/kg 3 h + LTG 30 mg/kg 1 h before stimulus, oral gavage, mean ± SEM, read-out: Plasma concentration total
  concentration at 1 h: 2800 ± 475 ng/mL
[2]; [3]
  Brain concentration total: 4054 ± 323 ng/g
  Plasma concentration total: 1203 ± 77 ng/mL

## CC[C@@H](C(N)=O)N1CCCC1=O [LEV, (S)-2-(2-oxopyrrolidin-1-yl)butanamide]
[1]; vehicle 3 h + LEV 1 mg/kg 1 h before stimulus
  Seizure stage (maximal seizure stage observed during exposure to auditory stimulus): 3.0 ± 0.0
[1]; vehicle 3 h + LEV 1 mg/kg 1 h before stimulus, listed as levetiracetam
  Seizure stage (maximal seizure stage observed during exposure to auditory stimulus): 3
[1]; vehicle 3 h + LEV 3 mg/kg 1 h before stimulus
  Seizure stage (maximal seizure stage observed during exposure to auditory stimulus): 2.1 ± 0.4 and 2.6 ± 0.3
[2]; COMPOUND 1 and LEV
  plasma and brain concentrations after administration of the compounds alone or in combination: similar
[2]; brain, 1 mg/kg, analyte LEV, vehicle 3 h + LEV 1 mg/kg 1 h before stimulus, oral gavage, mean ± SEM, read-out: Brain concentration total
  concentration at 1 h: 224 ± 20 ng/g
[2]; brain, 3 mg/kg, analyte LEV, vehicle 3 h + LEV 3 mg/kg 1 h before stimulus, oral gavage, mean ± SEM, read-out: Brain concentration total
  concentration at 1 h: 677 ± 70 ng/g
[2]; brain, 10 mg/kg, analyte LEV, vehicle 3 h + LEV 10 mg/kg 1 h before stimulus, oral gavage, mean ± SEM, read-out: Brain concentration total
  concentration at 1 h: 2130 ± 267 ng/g
[2]; brain, 50 mg/kg, analyte LEV, vehicle 3 h + LEV 50 mg/kg 1 h before stimulus, oral gavage, mean ± SEM, read-out: Brain concentration total
  concentration at 1 h: 11100 ± 886 ng/g
[2]; brain, analyte LEV, COMPOUND 1 10 mg/kg 3 h + LEV 1 mg/kg 1 h before stimulus, oral gavage, mean ± SEM, read-out: Brain concentration total
  concentration at 1 h: 310 ± 34 ng/g
[2]; brain, analyte LEV, COMPOUND 1 10 mg/kg 3 h + LEV 3 mg/kg 1 h before stimulus, oral gavage, mean ± SEM, read-out: Brain concentration total
  concentration at 1 h: 787 ± 39 ng/g
[2]; brain, analyte LEV, COMPOUND 1 10 mg/kg 3 h + LEV 10 mg/kg 1 h before stimulus, oral gavage, mean ± SEM, read-out: Brain concentration total
  concentration at 1 h: 2590 ± 169 ng/g
[2]; brain, analyte LEV, COMPOUND 1 10 mg/kg 3 h + LEV 50 mg/kg 1 h before stimulus, oral gavage, mean ± SEM, read-out: Brain concentration total
  concentration at 1 h: 12600 ± 549 ng/g
[2]; brain, analyte LEV, COMPOUND 1 30 mg/kg 3 h + LEV 3 mg/kg 1 h before stimulus, oral gavage, mean ± SEM, read-out: Brain concentration total
  concentration at 1 h: 714 ± 59 ng/g
[2]; brain, analyte LEV, COMPOUND 1 30 mg/kg 3 h + LEV 10 mg/kg 1 h before stimulus, oral gavage, mean ± SEM, read-out: Brain concentration total
  concentration at 1 h: 2150 ± 142 ng/g
[2]; brain, analyte LEV, COMPOUND 1 30 mg/kg 3 h + LEV 50 mg/kg 1 h before stimulus, oral gavage, mean ± SEM, read-out: Brain concentration total
  concentration at 1 h: 13500 ± 1380 ng/g
[2]; plasma, 1 mg/kg, analyte LEV, vehicle 3 h + LEV 1 mg/kg 1 h before stimulus, oral gavage, mean ± SEM, read-out: Plasma concentration total
  concentration at 1 h: 541 ± 48 ng/mL
[2]; plasma, 3 mg/kg, analyte LEV, vehicle 3 h + LEV 3 mg/kg 1 h before stimulus, oral gavage, mean ± SEM, read-out: Plasma concentration total
  concentration at 1 h: 1170 ± 53 ng/mL
[2]; plasma, 10 mg/kg, analyte LEV, vehicle 3 h + LEV 10 mg/kg 1 h before stimulus, oral gavage, mean ± SEM, read-out: Plasma concentration total
  concentration at 1 h: 4530 ± 473 ng/mL
[2]; plasma, 50 mg/kg, analyte LEV, vehicle 3 h + LEV 50 mg/kg 1 h before stimulus, oral gavage, mean ± SEM, read-out: Plasma concentration total
  concentration at 1 h: 26500 ± 2810 ng/mL
[2]; plasma, analyte LEV, COMPOUND 1 10 mg/kg 3 h + LEV 1 mg/kg 1 h before stimulus, oral gavage, mean ± SEM, read-out: Plasma concentration total
  concentration at 1 h: 564 ± 42 ng/mL
[2]; plasma, analyte LEV, COMPOUND 1 10 mg/kg 3 h + LEV 3 mg/kg 1 h before stimulus, oral gavage, mean ± SEM, read-out: Plasma concentration total
  concentration at 1 h: 1250 ± 53 ng/mL
[2]; plasma, analyte LEV, COMPOUND 1 10 mg/kg 3 h + LEV 10 mg/kg 1 h before stimulus, oral gavage, mean ± SEM, read-out: Plasma concentration total
  concentration at 1 h: 5780 ± 232 ng/mL
[2]; plasma, analyte LEV, COMPOUND 1 10 mg/kg 3 h + LEV 50 mg/kg 1 h before stimulus, oral gavage, mean ± SEM, read-out: Plasma concentration total
  concentration at 1 h: 27000 ± 1350 ng/mL
[2]; plasma, analyte LEV, COMPOUND 1 30 mg/kg 3 h + LEV 3 mg/kg 1 h before stimulus, oral gavage, mean ± SEM, read-out: Plasma concentration total
  concentration at 1 h: 1230 ± 64 ng/mL
[2]; plasma, analyte LEV, COMPOUND 1 30 mg/kg 3 h + LEV 10 mg/kg 1 h before stimulus, oral gavage, mean ± SEM, read-out: Plasma concentration total
  concentration at 1 h: 3880 ± 226 ng/mL
[2]; plasma, analyte LEV, COMPOUND 1 30 mg/kg 3 h + LEV 50 mg/kg 1 h before stimulus, oral gavage, mean ± SEM, read-out: Plasma concentration total
  concentration at 1 h: 26200 ± 2400 ng/mL
[2]; analyte LEV, vehicle 3 h + LEV 3 mg/kg 1 h before stimulus, oral gavage, mean ± SEM
  Brain concentration total: 675 ± 82 ng/g
[2]; analyte LEV, vehicle 3 h + LEV 10 mg/kg 1 h before stimulus, oral gavage, mean ± SEM
  Brain concentration total: 2307 ± 207 ng/g
[2]; analyte LEV, vehicle 3 h + LEV 50 mg/kg 1 h before stimulus, oral gavage, mean ± SEM
  Brain concentration total: 11318 ± 1440 ng/g
